Where only a bound is given, the exact number is not on record here.

The target in one assay is IKZF2 (Homo sapiens (Human), UniProt Q96SW2+Q9UKS7). Description: In vitro IKZF2 HiBit Assay (HEK293T Flp-in-HiBiT cells). Format: cell-based. To be noted: HEK293T Flp-in-HiBiT cells, 6 hrs incubation; for DC50: read-out: IKZF2 HiBit DC50; for Dmax: HEK-293T, read-out: IKZF2 HiBit Dmax (%). The procedure: In Vitro IKZF2 HiBit Assay
The HiBiT protein tagging system was applied to modified HEK293T Flp-in-HiBiT cells (polyclone) via a CRISPR/Cas9-mediated insertion of the HiBiT peptide tag (Promega™) to the N-terminus of the IKZF2 gene locus (Neon™ transfection system). Test and reference compounds are diluted from 1 mM at 3 folds for 11 doses. 25 nL of diluted compound is transfered to assay plates (Corning3570) using ECHO550, the final DMSO concentration @ 0.1%. The cells are seeded in 3000/25 μL/well to compound plates. It is then incubated for 6 hrs in TC incubator. The amount of Nano-Glo® HiBiT lytic reagent needed to perform the desired experiments is calculated. The Nano-Glo® HiBiT lytic reagent is brought to room temperature. The LgBiT protein is diluted to 1:100 and the Nano-Glo® HiBiT lytic substrate is diluted to 1:50 into an appropriate volume of room temperature Nano-Glo® HiBiT lytic buffer. 15 μL of the detection reagent (or without LgBiT) is dispensed to corresponding well according to the layout. The plate is then shaked for 10 mins at room temperature. After briefly centrifuge, the plate is read on Envision. At the indicated timepoints, the Nano-Glo® HiBiT lytic detection system (Promega™) was utilized for detecting bioluminescence of the HiBiT tag in treated cells: abundance of the tag is proportionate to the level of luminescence. Following normalization to DMSO, dose-response curves were plotted (GraphPad Prism) to determine the concentration points at which 50% of HiBiT-Helios degradation was achieved by each compound. The extent of degradation (range of luminescence) from the highest to lowest concentration points was calculated to determine the Dmax.
(§1) DC50, A: <1 nM; B: 1-10 nM; C: 10-100 nM; D: 100-1000 nM; E: 1000-10000 nM; F: >10,000 nM. Dmax, A: >80%; B: 60-80%; C: 40-60%; D: 20-40%; E: <20%.
In general terms: HiBiT is a short tag that completes a luciferase, so light tracks the accessible tagged protein.

The target in another assay is IKZF1 (Homo sapiens (Human), UniProt Q13422+Q96SW2). As to the kind of experiment: In vitro IKZF1 HiBit Assay (HEK293T Flp-in-HiBiT-IKZF1 stable cell line). The format is cell-based. To be noted: HEK293T Flp-in-HiBiT-IKZF1 stable cell line, 6 hrs incubation; for DC50: read-out: IKZF1 HiBit DC50; for Dmax: HEK-293T, read-out: IKZF1 HiBit Dmax (%). The procedure:
In Vitro IKZF1 HiBit Assay
The HiBiT protein tagging system was applied to modified Cells: modified HEK293T Flp-in-HiBiT-IKZF1 stable cell line (polyclone) via a CRISPR/Cas9-mediated insertion of the HiBiT peptide tag (Promega™) to the N-terminus of the […] gene locus (Neon™ transfection system).
25 nL of diluted compound is transferred to assay plates (Corning3571) using ECHO550, the final DMSO concentration @ 0.1%. The cells are seeded in 3000/25 μL/well to compound plates. The plates are incubated for 6 hrs in TC incubator. The amount of Nano-Glo® HiBiT lytic reagent needed to perform the desired experiments is calculated. The Nano-Glo® HiBiT lytic reagent is brought to room temperature. The LgBiT protein is diluted to 1:100 and the Nano-Glo® HiBiT lytic substrate is brought to 1:50 into an appropriate volume of room temperature Nano-Glo® HiBiT lytic buffer. 15 μL of the detection reagent (or without LgBiT) is dispensed to corresponding well according to the layout. The plate is shaked for 10 mins at room temperature. After briefly centrifuge, the plateis read on Envision. At the indicated timepoints, the Nano-Glo® HiBiT lytic detection system (Promega™) was utilized for detecting bioluminescence of the HiBiT tag in treated cells: abundance of the tag is proportionate to the level of luminescence. Following normalization to DMSO, dose-response curves were plotted (GraphPad Prism) to determine the concentration points at which 50% of HiBiT-Ikaros degradation was achieved by each compound. The extent of degradation (range of luminescence) from the highest to lowest concentration points was calculated to determine the Dmax.
as §1

Chain of IKZF1 (Q13422 whole entry): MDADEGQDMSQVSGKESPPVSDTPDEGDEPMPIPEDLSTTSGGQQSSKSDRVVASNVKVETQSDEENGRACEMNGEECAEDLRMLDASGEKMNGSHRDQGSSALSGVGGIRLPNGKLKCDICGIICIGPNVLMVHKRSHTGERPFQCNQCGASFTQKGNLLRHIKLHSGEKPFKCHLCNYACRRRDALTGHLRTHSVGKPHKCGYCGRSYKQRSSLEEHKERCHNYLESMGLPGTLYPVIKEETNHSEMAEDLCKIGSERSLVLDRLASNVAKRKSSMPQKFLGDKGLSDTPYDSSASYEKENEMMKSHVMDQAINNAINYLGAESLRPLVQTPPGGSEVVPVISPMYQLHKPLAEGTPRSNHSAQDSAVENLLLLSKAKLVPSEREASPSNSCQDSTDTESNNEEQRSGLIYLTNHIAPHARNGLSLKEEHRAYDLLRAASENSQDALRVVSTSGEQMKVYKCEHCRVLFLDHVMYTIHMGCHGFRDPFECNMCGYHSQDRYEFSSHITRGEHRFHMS
Chain of IKZF1 (Q96SW2 whole entry): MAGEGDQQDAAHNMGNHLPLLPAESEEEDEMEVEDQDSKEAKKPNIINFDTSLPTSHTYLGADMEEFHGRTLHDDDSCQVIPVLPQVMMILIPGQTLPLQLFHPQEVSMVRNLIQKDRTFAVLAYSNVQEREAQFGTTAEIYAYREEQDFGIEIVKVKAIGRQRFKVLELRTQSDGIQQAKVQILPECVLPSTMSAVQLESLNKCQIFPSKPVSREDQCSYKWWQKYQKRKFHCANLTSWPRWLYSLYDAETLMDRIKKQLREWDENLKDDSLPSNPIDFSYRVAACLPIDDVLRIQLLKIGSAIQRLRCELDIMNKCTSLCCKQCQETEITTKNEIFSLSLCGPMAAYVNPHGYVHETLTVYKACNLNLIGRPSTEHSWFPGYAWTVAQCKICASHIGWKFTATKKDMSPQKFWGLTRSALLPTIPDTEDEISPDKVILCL
Chain of IKZF1 (Q16531 2-1140 partner): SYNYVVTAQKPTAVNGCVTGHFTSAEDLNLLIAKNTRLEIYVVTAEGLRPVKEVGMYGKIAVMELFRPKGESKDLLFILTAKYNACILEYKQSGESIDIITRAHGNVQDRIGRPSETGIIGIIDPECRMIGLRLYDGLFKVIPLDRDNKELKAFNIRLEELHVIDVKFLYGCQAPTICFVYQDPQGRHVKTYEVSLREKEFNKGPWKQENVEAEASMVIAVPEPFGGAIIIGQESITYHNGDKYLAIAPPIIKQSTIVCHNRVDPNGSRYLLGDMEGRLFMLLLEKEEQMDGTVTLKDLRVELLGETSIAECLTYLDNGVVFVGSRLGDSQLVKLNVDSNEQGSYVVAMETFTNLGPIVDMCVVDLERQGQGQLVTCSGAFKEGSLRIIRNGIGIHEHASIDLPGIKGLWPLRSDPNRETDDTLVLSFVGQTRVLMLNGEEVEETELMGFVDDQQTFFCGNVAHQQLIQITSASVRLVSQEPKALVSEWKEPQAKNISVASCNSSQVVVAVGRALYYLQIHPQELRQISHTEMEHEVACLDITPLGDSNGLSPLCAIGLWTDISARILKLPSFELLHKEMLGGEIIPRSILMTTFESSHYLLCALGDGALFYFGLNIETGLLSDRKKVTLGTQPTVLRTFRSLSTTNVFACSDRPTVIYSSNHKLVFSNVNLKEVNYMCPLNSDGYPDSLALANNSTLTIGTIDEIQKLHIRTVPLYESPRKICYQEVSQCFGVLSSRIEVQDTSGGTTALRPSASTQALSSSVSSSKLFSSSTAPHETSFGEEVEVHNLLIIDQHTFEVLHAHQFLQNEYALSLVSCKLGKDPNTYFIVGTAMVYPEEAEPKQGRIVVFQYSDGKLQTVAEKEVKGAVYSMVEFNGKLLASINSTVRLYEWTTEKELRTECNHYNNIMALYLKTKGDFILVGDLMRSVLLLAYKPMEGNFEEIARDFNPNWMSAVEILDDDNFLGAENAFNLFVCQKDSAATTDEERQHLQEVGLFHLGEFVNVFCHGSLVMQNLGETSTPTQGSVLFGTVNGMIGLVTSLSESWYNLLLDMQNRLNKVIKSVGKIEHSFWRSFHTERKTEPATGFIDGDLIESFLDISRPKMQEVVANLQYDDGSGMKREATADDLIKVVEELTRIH
Chain of IKZF2 (Q9UKS7 whole entry): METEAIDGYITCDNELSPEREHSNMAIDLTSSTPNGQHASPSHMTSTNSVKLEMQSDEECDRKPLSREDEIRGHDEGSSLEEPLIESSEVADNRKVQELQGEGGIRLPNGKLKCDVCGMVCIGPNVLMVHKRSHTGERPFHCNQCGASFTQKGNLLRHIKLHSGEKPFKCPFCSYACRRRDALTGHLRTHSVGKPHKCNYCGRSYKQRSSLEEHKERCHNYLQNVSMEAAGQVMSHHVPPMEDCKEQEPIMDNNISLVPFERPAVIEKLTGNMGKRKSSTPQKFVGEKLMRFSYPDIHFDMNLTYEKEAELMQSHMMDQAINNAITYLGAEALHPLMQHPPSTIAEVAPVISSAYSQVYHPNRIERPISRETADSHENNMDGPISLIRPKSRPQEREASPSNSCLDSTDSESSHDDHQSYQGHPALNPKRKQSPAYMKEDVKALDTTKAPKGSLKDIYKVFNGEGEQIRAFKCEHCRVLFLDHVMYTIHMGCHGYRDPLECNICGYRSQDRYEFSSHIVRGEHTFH
Chain of IKZF2 (Q96SW2 whole entry): as the sequence (Q96SW2 whole entry) above
Chain of IKZF2 (Q16531 2-1140 partner): as the sequence (Q16531 2-1140 partner) above

With `CO[C@H]1C[C@@H](Oc2ccnc3c(CN4CCCC4)cc(-c4ccc5c(c4)CN(C4CCC(=O)NC4=O)C5=O)nc23)C1` (stereo partly drawn) [Example 281, 3-(5-(8-((1s,3s)-3-methoxycyclobutoxy)-4-(pyrrolidin-1-ylmethyl)-1,5-naphthyridin-2-yl)-1-oxoisoindolin-2-yl) piperidine-2,6-dione], the DC50 is 10 to 100 nM on IKZF2 and more than 10000 nM at IKZF1. The Dmax is 60 to 80% on IKZF2 and less than 20% on IKZF1.
On the same counts, the results for `O=C1CCC(N2Cc3cc(-c4cc(CN5CCCC5CF)c5ccn(C6COC6)c5n4)ccc3C2=O)C(=O)N1` (stereo not drawn) [Example 257, 3-(5-(4-((2-(fluoromethyl)pyrrolidin-1-yl)methyl)-1-(oxetan-3-yl)-1H-pyrrolo[2,3-b]pyridin-6-yl)-1-oxoisoindolin-2-yl) piperidine-2,6-dione] are 1 to 10 nM, 1 to 10 nM, more than 80% and 20 to 40%.
As to `Cc1cc(-c2ccc3c(c2)CN(C2CCC(=O)NC2=O)C3=O)nc2c1nc(CN1CCCC1)n2C1COC1` (stereo not drawn) [Example 259, 3-(5-(7-methyl-3-(oxetan-3-yl)-2-(pyrrolidin-1-ylmethyl)-3H-imidazo[4,5-b]pyridin-5-yl)-1-oxoisoindolin-2-yl) piperidine-2,6-dione], at IKZF2, the DC50 is more than 10000 nM and the Dmax was less than 20%. For the same compound, at IKZF1, the DC50 is more than 10000 nM and the Dmax was less than 20%.
Turning to `O=C1CCC(N2Cc3cc(-c4cc(CN5CCCC5)c5nccc(OC6COC6)c5n4)ccc3C2=O)C(=O)N1` (stereo not drawn) [Example 251, 3-(5-(8-(oxetan-3-yloxy)-4-(pyrrolidin-1-ylmethyl)-1,5-naphthyridin-2-yl)-1-oxoisoindolin-2-yl) piperidine-2,6-dione], at IKZF2, the DC50 lay within 10 to 100 nM and the Dmax was in the range of 60 to 80%. Also, on IKZF1, the DC50 is more than 10000 nM and the Dmax was less than 20%.
For the compound `O=C1CCC(N2Cc3cc(-c4cc(CN5CCCC5)c5[nH]nc(C6CC6)c5n4)ccc3C2=O)C(=O)N1` (stereo not drawn) [Example 202, 3-(5-(3-cyclopropyl-7-(pyrrolidin-1-ylmethyl)-1H-pyrazolo[4,3-b]pyridin-5-yl)-1-oxoisoindolin-2-yl) piperidine-2,6-dione], the DC50 on IKZF2 and on IKZF1 was 1 to 10 nM each time. The results for the Dmax on IKZF2 and at IKZF1 were more than 80% and 40 to 60%, respectively.
Take `O=C1CCC(N2Cc3cc(-c4cc(CN5CC(CO)C5)c5ccn(C6CC6)c5n4)ccc3C2=O)C(=O)N1` (stereo not drawn) [Example 152, 3-(5-(1-cyclopropyl-4-((3-(hydroxymethyl)azetidin-1-yl)methyl)-1H-pyrrolo[2,3-b]pyridin-6-yl)-1-oxoisoindolin-2-yl) piperidine-2,6-dione]: on IKZF2, the DC50 lay within 10 to 100 nM and the Dmax is more than 80%. In addition, on IKZF1, the DC50 was in the range of 100 to 1000 nM and the Dmax is 20 to 40%.
Turning to `CC(=O)N1CC(n2ccc3c(CN4CCCC4)cc(-c4ccc5c(c4)CN(C4CCC(=O)NC4=O)C5=O)nc32)C1` (stereo not drawn) [Example 256, 3-(5-(1-(1-acetylazetidin-3-yl)-4-(pyrrolidin-1-ylmethyl)-1H-pyrrolo[2,3-b]pyridin-6-yl)-1-oxoisoindolin-2-yl) piperidine-2,6-dione], the DC50 was 10 to 100 nM at IKZF2 and more than 10000 nM on IKZF1. Moreover, the Dmax on IKZF2 is more than 80%; on IKZF1, less than 20%.
On the same counts, the results for `CCc1c(-c2ccc3c(c2)CN(C2CCC(=O)NC2=O)C3=O)nc2c(ccn2C2COC2)c1CN1CCCC1` (stereo not drawn) [Example 262, 3-(5-(5-ethyl-1-(oxetan-3-yl)-4-(pyrrolidin-1-ylmethyl)-1H-pyrrolo[2,3-b]pyridin-6-yl)-1-oxoisoindolin-2-yl) piperidine-2,6-dione] are 1 to 10 nM, more than 10000 nM, 60 to 80% and less than 20%.
On the same counts, the results for `COCCOc1ccnc2c(CN3CCCC3)cc(-c3ccc4c(c3)CN(C3CCC(=O)NC3=O)C4=O)nc12` (stereo not drawn) [Example 278, 3-(5-(8-(2-methoxyethoxy)-4-(pyrrolidin-1-ylmethyl)-1,5-naphthyridin-2-yl)-1-oxoisoindolin-2-yl) piperidine-2,6-dione] are more than 10000 nM, more than 10000 nM, less than 20% and less than 20%.
On the same counts, the results for `O=C1CCC(N2Cc3cc(-c4cc(CN5CCCC5)c5nccc(N6CCC6)c5n4)ccc3C2=O)C(=O)N1` (stereo not drawn) [Example 243, 3-(5-(8-(azetidin-1-yl)-4-(pyrrolidin-1-ylmethyl)-1,5-naphthyridin-2-yl)-1-oxoisoindolin-2-yl) piperidine-2,6-dione] are 10 to 100 nM, 100 to 1000 nM, 60 to 80% and 20 to 40%.
With `O=C1CCC(N2Cc3cc(-c4cc(CN5CCCC5)c5ccn(C6COC6)c5n4)c(Cl)cc3C2=O)C(=O)N1` (stereo not drawn) [Example 273, 3-(6-chloro-5-(1-(oxetan-3-yl)-4-(pyrrolidin-1-ylmethyl)-1H-pyrrolo[2,3-b]pyridin-6-yl)-1-oxoisoindolin-2-yl) piperidine-2,6-dione], on IKZF2, the DC50 was more than 10000 nM and the Dmax is less than 20%. Further, on IKZF1, the DC50 is more than 10000 nM and the Dmax was less than 20%.
On to `O=C1CCC(N2Cc3cc(-c4cc(CN5CCCC5)c5c(C(F)(F)F)n[nH]c5n4)ccc3C2=O)C(=O)N1` (stereo not drawn) [Example 134, 3-(1-oxo-5-(4-(pyrrolidin-1-ylmethyl)-3-(trifluoromethyl)-1H-pyrazolo[3,4-b]pyridin-6-yl)isoindolin-2-yl) piperidine-2,6-dione], for which, on IKZF2, the DC50 was in the range of 1 to 10 nM and the Dmax was more than 80%. In addition, at IKZF1, the DC50 was more than 10000 nM and the Dmax is less than 20%.
Taken in the same sequence, the figures for `O=C1CC[C@H](N2Cc3cc(-c4cc(CN5CCCC5)c5ccn(-c6ncco6)c5n4)ccc3C2=O)C(=O)N1` [Example 267, (S)-3-(5-(1-(oxazol-2-yl)-4-(pyrrolidin-1-ylmethyl)-1H-pyrrolo[2,3-b]pyridin-6-yl)-1-oxoisoindolin-2-yl) piperidine-2,6-dione] were 1 to 10 nM, 60 to 80%, more than 10000 nM and less than 20%.
Taken in the same sequence, the figures for `CC(C)CC1CCN(Cc2cc(-c3ccc4c(c3)CN(C3CCC(=O)NC3=O)C4=O)nc3[nH]ccc23)C1` (stereo not drawn) [Example 153, 3-(5-(4-((3-isobutylpyrrolidin-1-yl)methyl)-1H-pyrrolo[2,3-b]pyridin-6-yl)-1-oxoisoindolin-2-yl) piperidine-2,6-dione] were less than 1 nM, more than 80%, 10 to 100 nM and 40 to 60%.
On the same counts, the results for `CS(=O)(=O)Nc1n[nH]c2c(CN3CCCC3)cc(-c3ccc4c(c3F)CN(C3CCC(=O)NC3=O)C4=O)nc12` (stereo not drawn) [Example 297, N-(5-(2-(2,6-dioxopiperidin-3-yl)-4-fluoro-1-oxoisoindolin-5-yl)-7-(pyrrolidin-1-ylmethyl)-1H-pyrazolo[4,3-b]pyridin-3-yl) methanesulfonamide] are more than 10000 nM, less than 20%, more than 10000 nM and less than 20%.

The values above are taken from US20250214991A1 (Oncopia Therapeutics, Inc. d/b/a/ SK Life Science Labs, priority 2022, published 2025).
